Laboratory results from patent publication US10729675B2, “Gossypol isatin schiff base compounds with antitumor activities and a method of preparing the same” (SHAANXI UNIVERSITY OF SCIENCE AND TECHNOLOGY, priority 2018, dated 2020).

Tests used:
[1] = tested on: human hepatoma cells (HepG2); assay: tumor cell proliferation inhibition test, MTT method, HepG2; type: cell-based; details: 48 hours treatment, read-out: Half Inhibitory Concentration IC50 HepG2
Procedure: (§1) The compounds of the present invention were subjected to tumor cell proliferation inhibition test, and conventional MTT method was used.
(§2) Cell lines: human hepatoma cells (HepG2), human lung cancer cells (A-549), human gastric cancer cells (SGC-7901). The culture medium was DMEM+15% NBS+double antibody.
(§3) Sample solution preparation: after dissolving with DMSO (Merck), PBS (−) was added to obtain 100 μmol/L solution or homogeneous suspension. The solution was diluted with PBS (−) in DMSO to a final concentration of 0.1, 1, 10, 20, 40, 60, 80, 100 μmol/L.
(§4) Gossypol was used as control solution, prepared under the same condition.
(§5) Cell culture: adherent growth Tumor cells were cultured in 1640 medium containing 10% inactivated neonatal bovine serum and penicillin, streptomycin (1 million U/L), placed in carbon dioxide incubator at 37° C., 5% CO2, and saturated humidity. Cells were treated serially passaged 2-3 times. The first culture was washed with PBS 2 times, and digested with trypsin. Fresh culture medium was added evenly, cells were adjusted to a appropriate concentration and transferred into a new culture flask. Cell in an exponential phase were chosen for the tests.
(§6) Experimental Principle: Living cells mitochondria in the dehydrogenase can reduce yellow MTT to water-insoluble blue-violet product MT (MTT formazan), deposited in the cells. The amount of production is proportional to the number of living cells. […] DMSO can dissolve blue violet crystals, and the color depth is proportional to the amount contained, so the absorbance measured by the microplate reader can reflect the cell viability.
(§7) Methods: The exponential phase cells were digested and counted and seeded in 96-well plates at a density of 2×10^4/mL at 100 μl per well. After 24 hours of incubation, the cells to be tested were treated with 0.1, 1, 10, 20, 40, 60, 80, 100 μmol/L of the compounds. Each experimental group had 5 wells in each concentration, and the culture medium containing 0.4% DMSO was used as control. After 48 hours, the supernatant was discarded, and 100 μl of MTT ((2-(4,5-dimethyl-2-thiazolyl)-3,5-diphenyl-2H-tetrazole hydrobromide) (1 mg/mL) was added to each well. After another 4 hours, the supernatant was discarded, and 100 μl of DMSO was added to each well. After mixing, the absorbance was measured at 570 nm using a microplate reader. An IC50 calculation software was used to determine the half inhibitory concentration (IC50).

[2] = tested on: human gastric cancer cells (SGC-7901); assay: tumor cell proliferation inhibition test, MTT method, SGC-7901; type: cell-based; details: SGC-7901 cells, 48 hours treatment, read-out: Half Inhibitory Concentration IC50 SGC-7901
Procedure: as §1, §2, §3, §4, §5, §6, §7

[3] = tested on: human lung cancer cells (A-549); assay: tumor cell proliferation inhibition test, MTT method, A-549; type: cell-based; details: A549 cells, 48 hours treatment, read-out: Half Inhibitory Concentration IC50 A549
Procedure: as §1, §2, §3, §4, §5, §6, §7

[4] = tested on: HepG2, A-549, SGC-7901 tumor cells; assay: anti-tumor activity test, MTT method, summary over the three cell lines tested; type: cell-based, human
Procedure: as §1, §2, §3, §4
as §5, with “Cell in an exponential phase were chosen for the tests.” left out
as §6, with “the” for “the cells. The amount of production is proportional to the number of living”
as §7, with “After 24 hours of incubation, the cells to be tested were treated with 0.1, 1, 10, 20, 40, 60, 80, 100 μmol/L of the compounds. Each experimental group had 5 wells in each concentration, and the culture medium containing 0.4% DMSO was used as control.” left out

Row | melting point | IC50 [1] | IC50 [2] | IC50 [3] | SMILES | antitumor activities (in words) [4]
1 | 187.5 °C | > 100 µM | > 100 µM | > 100 µM | Cc1ccc2c(c1)/C(=N/N=C/c1c(O)c(O)c(C(C)C)c3cc(C)c(-c4c(C)cc5c(C(C)C)c(O)c(O)c(/C=N/N=C6/C(=O)Nc7ccc(C)cc76)c5c4O)c(O)c13)C(=O)N2 [Compound 1, (3Z,3′E)-3,3′-(((1E,1′E)-(1,1′,6,6′,7,7′-hexahydroxy-5,5′-diisopropyl-3,3′-dimethyl-[2,2′-binaphthalene]-8,8′-diyl)bis(methanylylidene))bis(hydrazine-2,1-diylidene))bis(5-methylindolin-2-one)] | 
2 | 190.7 °C | 29.4 ± 2.1 µM | > 100 µM | 68.3 ± 2.15 µM | Cc1cc2c(C(C)C)c(O)c(O)c(/C=N/N=C3\C(=O)Nc4ccc(Cl)cc43)c2c(O)c1-c1c(C)cc2c(C(C)C)c(O)c(O)c(/C=N/N=C3/C(=O)Nc4ccc(Cl)cc43)c2c1O [Compound 2, (3Z,3′E)-3,3′-(((1E,1′E)-(1,1′,6,6′,7,7′-hexahydroxy-5,5′-diisopropyl-3,3′-dimethyl-[2,2′-binaphthalene]-8,8′-diyl)bis(methanylylidene))bis(hydrazine-2,1-diylidene))bis(5-chloroindolin-2-one)] | 
3 |  | 8.67 ± 0.74 µM | 16.6 ± 1.46 µM | 7.87 ± 0.91 µM | Cc1cc2c(C(C)C)c(O)c(O)c(/C=N/N=C3\C(=O)N(C)c4ccccc43)c2c(O)c1-c1c(C)cc2c(C(C)C)c(O)c(O)c(/C=N/N=C3/C(=O)N(C)c4ccccc43)c2c1O [Compound 3, (3Z,3′E)-3,3′-(((1E, 1′E)-(1,1′,6,6′,7,7′-hexahydroxy-5,5′-diisopropyl-3,3′-dimethyl-[2,2′-binaphthalene]-8,8′-diyl)bis(methanylylidene))bis(hydrazine-2,1-diylidene))bis(1-methylindolin-2-one)] | excellent antitumor activities
4 | 204.3 °C | > 100 µM | > 100 µM | > 100 µM | Cc1cc2c(C(C)C)c(O)c(O)c(/C=N/N=C3\C(=O)N(C)c4ccc(Cl)cc43)c2c(O)c1-c1c(C)cc2c(C(C)C)c(O)c(O)c(/C=N/N=C3/C(=O)N(C)c4ccc(Cl)cc43)c2c1O [Compound 4, (3Z,3′E)-3,3′-(((1E, 1′E)-(1,1′,6,6′,7,7′-hexahydroxy-5,5′-diisopropyl-3,3′-dimethyl-[2,2′-binaphthalene]-8,8′-diyl)bis(methanylylidene))bis(hydrazine-2,1-diylidene))bis(5-chloro-1-methylindolin-2-one)] | 
5 |  | 8.92 ± 0.59 µM | 13.7 ± 1.11 µM | 19.3 ± 1.62 µM | CCN1C(=O)/C(=N\N=C\c2c(O)c(O)c(C(C)C)c3cc(C)c(-c4c(C)cc5c(C(C)C)c(O)c(O)c(/C=N/N=C6/C(=O)N(CC)c7ccc(Cl)cc76)c5c4O)c(O)c23)c2cc(Cl)ccc21 [Compound 5, (3Z,3′E)-3,3′-(((1E, 1′E)-(1,1′,6,6′,7,7′-hexahydroxy-5,5′-diisopropyl-3,3′-dimethyl-[2,2′-binaphthalene]-8,8′-diyl)bis(methanylylidene))bis(hydrazine-2,1-diylidene))bis(5-chloro-1-ethylindolin-2-one)] | good activities
6 | 216.3 °C | > 100 µM | > 100 µM | 66.5 ± 2.53 µM | Cc1cc2c(C(C)C)c(O)c(O)c(/C=N/N=C3\C(=O)N(C(C)C)c4ccc(Cl)cc43)c2c(O)c1-c1c(C)cc2c(C(C)C)c(O)c(O)c(/C=N/N=C3/C(=O)N(C(C)C)c4ccc(Cl)cc43)c2c1O [Compound 6, (3Z,3′E)-3,3′-(((1E,1′E)-(1,1′,6,6′,7,7′-hexahydroxy-5,5′-diisopropyl-3,3′-dimethyl-[2,2′-binaphthalene]-8,8′-diyl)bis(methanylylidene))bis(hydrazine-2,1-diylidene))bis(5-chloro-1-isopropylindolin-2-one)] | 
7 |  | 14.7 ± 1.12 µM | 12.5 ± 1.93 µM | 16.3 ± 1.21 µM | Cc1cc2c(C(C)C)c(O)c(O)c(/C=N/N=C3\C(=O)N(Cc4ccccc4)c4ccc(Cl)cc43)c2c(O)c1-c1c(C)cc2c(C(C)C)c(O)c(O)c(/C=N/N=C3/C(=O)N(Cc4ccccc4)c4ccc(Cl)cc43)c2c1O [Compound 7, (3Z,3′E)-3,3′-(((1E, 1′E)-(1,1′,6,6′,7,7′-hexahydroxy-5,5′-diisopropyl-3,3′-dimethyl-[2,2′-binaphthalene]-8,8′-diyl)bis(methanylylidene))bis(hydrazine-2,1-diylidene))bis(1-benzyl-5-chloroindolin-2-one)] | good activities
8 | 219.9 °C | > 100 µM | 88.8 ± 3.02 µM | > 100 µM | Cc1cc2c(C(C)C)c(O)c(O)c(/C=N/N=C3\C(=O)N(Cc4ccccc4)c4ccccc43)c2c(O)c1-c1c(C)cc2c(C(C)C)c(O)c(O)c(/C=N/N=C3/C(=O)N(Cc4ccccc4)c4ccccc43)c2c1O [Compound 8, (3Z,3′E)-3,3′-(((1E, 1′E)-(1,1′,6,6′,7,7′-hexahydroxy-5,5′-diisopropyl-3,3′-dimethyl-[2,2′-binaphthalene]-8,8′-diyl)bis(methanylylidene))bis(hydrazine-2,1-diylidene))bis(1-benzylindolin-2-one)] | 
